Source: US20210298299A1 (priority 2018, published 2021)
Like-named read-outs stand apart in the source and are kept apart here.

Assays:
Format in all cases: in vivo
[1] = test system: rice blast fungus Pyricularia oryzae; settings: alone
[2] = test system: wheat speckled leaf blotch fungus Septoria tritici; assay: Test for wheat speckled leaf blotch (Septoria tritici); settings: alone
Procedure: Test for Wheat Speckled Leaf Blotch (Septoria tritici)
(§1) The agrochemical formulations diluted to predetermined concentrations were applied to wheat plants at a predetermined amount with a spray gun. After air-drying, the wheat plants were spray-inoculated with a spore suspension of the wheat speckled leaf blotch fungus Septoria tritici (1.0×10^7 spores/mL). After that, the wheat pots were kept in a greenhouse under light conditions at 15° C. and 100% RH to induce the development of the disease. At 17 days after the inoculation, the disease area percentage was indexed on a scale of 0 to 10 to evaluate the control efficacy. The control value is expressed in percentage (%) as shown below or in index form as in Example 1.
Disease Severity Index Scale
0: No manifestation of disease
1: Lesion area percentage is 1 to 10%.
2: Lesion area percentage is 11 to 20%.
3: Lesion area percentage is 21 to 30%.
4: Lesion area percentage is 31 to 40%.
5: Lesion area percentage is 41 to 50%.
6: Lesion area percentage is 51 to 60%.
7: Lesion area percentage is 61 to 70%.
8: Lesion area percentage is 71 to 80%.
9: Lesion area percentage is 81 to 90%.
10: Lesion area percentage is 91 to 100%.
Control value (%)=(disease severity index in non-treatment plot−disease severity index in treatment plot)×100/disease severity index in non-treatment plot [Math. 3]

[3] = test system: cucumber gray mold fungus Botrytis cinerea; assay: Test for control efficacy against cucumber gray mold; settings: alone, from diameter of lesion area
Procedure: Test for Control Efficacy Against Cucumber Gray Mold
The agrochemical formulations diluted to predetermined concentrations were applied to the foliage of cucumber plants (variety: Suuyou) at the one-leaf stage grown in individual pots. The application rate was 50 mL per pot. On the day following the application, 6-mm-diameter paper disks were impregnated with a spore suspension of the cucumber gray mold fungus Botrytis cinerea cultured on PSA medium, and inoculated onto cucumber true leaves. The pots were kept at a temperature of 20° C. and a humidity of 100%. At 6 days after the inoculation, the control value was determined by the equation 4 shown below.
Control value (%)=(diameter of lesion area in non-treatment plot−diameter of lesion area in treatment plot)×100/diameter of lesion area in non-treatment plot [Math. 4]

[4] = test system: cucumber anthracnose fungus Colletotrichum orbiculare; settings: alone, rating scale of Test Example 1
[5] = test system: leaf rust fungus Puccinia recondita; assay: Test for control efficacy against wheat leaf rust; settings: alone, scale of 0 to 10
Procedure: Test for Control Efficacy Against Wheat Leaf Rust
as §1, with “the” for “the wheat speckled”, “rust” for “blotch”, “Puccinia recondita” for “Septoria tritici”, “7” for “17”, “efficacy.” for “efficacy. The control value is expressed in percentage (%) as shown below or in index form as in Example 1.”

[6] = test system: tomato late blight fungus Phytophthora infestans; settings: alone, rating scale of Test Example 2
Laodelphax striatellus = assay: Test for control efficacy against Laodelphax striatellus; settings: alone, 30 days after the agrochemical treatment
From the text: Test for Control Efficacy Test Against Laodelphax striatellus
Adults of the test insect were released onto rice plants (variety: Kinmaze, 95 days after transplantation) grown in individual 2-L pots (8 females and 5 males per pot). At 11 days after the insect release (when hatched larvae were observed), mixed formulations of compound [1-7] and other agrochemicals and each individual agrochemical (prescribed effective doses) were separately applied. After air-drying and at 10 days after the agrochemical treatment, adults of the test insect were additionally released onto the rice plants (8 females and 5 males per pot). At 30 days after the agrochemical treatment, the number of survivors was measured, and the control value was calculated by equation 6. In addition, the expected value E for the mixed use was calculated by Colby's equation as described in Test Example 1. When the actual control efficacy of combined treatment with two different agrochemicals is greater than the expected value E, the combination can be regarded as having synergistic effect.
Control value (%)=(1−number of survivors/number of survivors in control plot)×100 [Math. 6]
Assuming that the control value for “no grade” is 49%, when the control values of the two different agrochemicals are both 49%, the expected value E calculated by Colby's equation is as follows: E=(49+49)−(49×49/100)=73.99. The control value of 73.99 corresponds to grade C. Therefore, when both the agrochemicals are graded as no grade, the expected value is C.

Plutella xylostella = assay: Test for control efficacy against Plutella xylostella; settings: alone
From the text: Test for Control Efficacy Against Plutella xylostella
Brassica oleracea var. capitata (variety: YR Seitoku) seedlings were planted in a glass greenhouse, and after reaching the 12- to 15-leaf stage, the seedlings were inoculated with 3rd-instar larvae of Plutella xylostella. The number of surviving larvae per three plants before agrochemical treatment was counted. A mixed formulation of compound [1-2] and flubendiamide (prepared according to Formulation Example 5) and each individual agrochemical were separately diluted to predetermined concentrations in water and applied to the Brassica oleracea var. capitata plants. The number of surviving larvae was counted at 2 and 6 days after the application, and the control efficacy was calculated by the equation 5 shown below. In addition, the expected value E was calculated by Colby's equation as described in Test Example 1.
Control efficacy (%)=100−{(Ta×Cb)/(Tb×Ca)}×100 [Math. 5]
Ta=number of survivors after agrochemical treatment in treatment plot
Tb=number of survivors before agrochemical treatment in treatment plot […]
As a result of the test for control efficacy against Plutella xylostella, the control efficacy of the composition composed of compound […] was greater than the expected value E calculated by Colby's equation from the control efficacy of the individual compounds. […]

Structure (SMILES): Fc1ccc([C@]2(Cn3cncn3)O[C@H]2c2ccccc2Cl)cc1 (racemic) [Epoxiconazole 8EC, epoxiconazole]
- Control value ([1]; 0.5 ppm, ten-point scale): 0.0
- Control value ([1]; 2 ppm, ten-point scale): 3.0
- Control value ([1]; 8 ppm, ten-point scale): 10
- Control value (%) ([2]; 0.4 ppm, Compound [1-5] series): 0%
- Control value (%) ([2]; 1.1 ppm, Compound [1-5] series): 0%
- Control value (%) ([2]; 2 ppm, Compound [1-7] series): 0.0%
- Control value (%) ([2]; 3.3 ppm, Compound [1-5] series): 16%
- Control value (%) ([2]; 8 ppm, Compound [1-7] series): 6.0%
- Control value (%) ([2]; 10 ppm, Compound [1-5] series): 86%
- Control value ([3]; 67 ppm): 55%
- Control value ([3]; 200 ppm): 100%
- Control value ([4]; 0.5 ppm): 0.0
- Control value ([4]; 2 ppm): 0.0
- Control value ([5]; 0.5 ppm): 7.0
- Control value ([5]; 2 ppm): 10.0

Structure (SMILES): CO/C=C(/C(=O)OC)c1ccccc1Oc1cc(Oc2ccccc2C#N)ncn1 [Azoxystrobin 20SC, azoxystrobin]
- Control value ([1]; 0.3 ppm, ten-point scale): 1.0
- Control value ([1]; 3 ppm, ten-point scale): 10
- Control value ([6]; 0.3 ppm): 0.0
- Control value ([6]; 3 ppm): 2.0
- Grade (Laodelphax striatellus; 100 ppm): No grade (less than 50%)
- Grade (Laodelphax striatellus; 500 ppm): No grade (less than 50%)
- Control value ([4]; 0.3 ppm): 2.0
- Control value ([4]; 3 ppm): 8.0
- Control value ([5]; 0.3 ppm): 0.0
- Control value ([5]; 3 ppm): 9.0

Structure (SMILES): O=C(Nc1ccccc1-c1ccc(Cl)cc1)c1cccnc1Cl [Boscalid 50WG, boscalid]
- Control value ([3]; 2 ppm): 8%
- Control value ([3]; 7 ppm): 18%
- Control value ([3]; 22 ppm): 20%

Structure (SMILES): CCC(Nc1ncnc(C)c1Cl)c1ccc(OC(F)F)cc1 (stereo not drawn) [Diflumetorim 10EC, diflumetorim]
- Control value ([1]; 10 ppm, ten-point scale): 8.0
- Control value ([4]; 10 ppm): 2.0
- Control value ([5]; 10 ppm): 1.0

Structure (SMILES): CC1(C(=O)Nc2ccc(O)c(Cl)c2Cl)CCCCC1 [Fenhexamid 50SC, fenhexamid]
- Control value ([3]; 7 ppm): 0%
- Control value ([3]; 22 ppm): 0%
- Control value ([3]; 200 ppm): 53%

Structure (SMILES): N#Cc1c[nH]cc1-c1cccc2c1OC(F)(F)O2 [Fludioxonil 20SC, fludioxonil]
- Control value ([1]; 3 ppm, ten-point scale): 6.0
- Control value ([1]; 10 ppm, ten-point scale): 9.0
- Control value ([3]; 7 ppm): 0%
- Control value ([3]; 22 ppm): 59%
- Control value ([4]; 3 ppm): 7.0
- Control value ([4]; 10 ppm): 9.5
- Control value ([5]; 3 ppm): 0.0
- Control value ([5]; 10 ppm): 0.0
- Control value ([5]; 200 ppm): 4.0

Structure (SMILES): O=C(NCCc1ncc(C(F)(F)F)cc1Cl)c1ccccc1C(F)(F)F [Fluopyram 50SC, fluopyram]
- Control value ([1]; regardless of the concentration): 0
- Control value (%) ([2]; 10 ppm, Compound [1-7] series): 0.0%
- Control value ([4]; 3 ppm): 0.0
- Control value ([4]; 10 ppm): 2.0

Structure (SMILES): Cn1cc(C(=O)Nc2ccccc2-c2cc(F)c(F)c(F)c2)c(C(F)F)n1 [Fluxapyroxad 6EC, fluxapyroxad]
- Control value ([1]; 0.3 ppm, ten-point scale): 0.0
- Control value ([1]; 1 ppm, ten-point scale): 0.0
- Control value ([6]; 1 ppm): 0.0
- Control value (%) ([2]; 0.07 ppm, Compound [1-5] series): 16%
- Control value (%) ([2]; 0.22 ppm, Compound [1-5] series): 31%
- Control value (%) ([2]; 0.67 ppm, Compound [1-5] series): 65%
- Control value (%) ([2]; 1 ppm, Compound [1-7] series): 0.0%
- Control value (%) ([2]; 2.0 ppm, Compound [1-5] series): 98%
- Control value (%) ([2]; 6.0 ppm, Compound [1-5] series): 99%
- Control value ([4]; 1 ppm): 0.0

Structure (SMILES): OC(Cc1ccccc1Cl)(Cn1nc[nH]c1=S)C1(Cl)CC1 (stereo not drawn) [Prothioconazole 25EC, prothioconazole]
- Control value ([1]; 6.25 ppm, ten-point scale): 5.0
- Control value ([1]; 25 ppm, ten-point scale): 9.0
- Control value ([6]; 25 ppm): 0.0
- Control value ([4]; 6.25 ppm): 8.0
- Control value ([4]; 25 ppm): 10
- Control value ([5]; 6.25 ppm): 0.0
- Control value ([5]; 25 ppm): 5.0

Structure (SMILES): COC(=O)N(OC)c1ccccc1COc1ccn(-c2ccc(Cl)cc2)n1 [Pyraclostrobin 25EC, pyraclostrobin]
- Grade (Plutella xylostella; 10 ppm): No grade (less than 50%)
- Grade (Plutella xylostella; 50 ppm): A (100%)
- Control value ([6]; 3 ppm): 4.0
- Grade (Laodelphax striatellus; 10 ppm): No grade (less than 50%)
- Grade (Laodelphax striatellus; 50 ppm): A (100%)
- Control value ([4]; 3 ppm): 7.0
- Control value ([5]; 1 ppm): 5.0
- Control value ([5]; 3 ppm): 9.0

Structure (SMILES): O=C(Nc1ccccc1-c1ccc(F)c(F)c1)c1nccnc1C(F)(F)F [Pyraziflumid 20SC, pyraziflumid]
- Control value ([6]; 2 ppm): 0.0
- Control value (%) ([2]; 0.2 ppm, Compound [1-5] series): 1%
- Control value (%) ([2]; 0.7 ppm, Compound [1-5] series): 53%
- Control value (%) ([2]; 2 ppm, Compound [1-7] series): 6.0%
- Control value (%) ([2]; 2.2 ppm, Compound [1-5] series): 92%
- Control value (%) ([2]; 6.7 ppm, Compound [1-5] series): 99%
- Control value (%) ([2]; 20 ppm, Compound [1-5] series): 100%
- Control value ([4]; 0.5 ppm): 0.0
- Control value ([4]; 2 ppm): 0.0
- Control value ([5]; 2 ppm): 2.0

Structure (SMILES): CC(C)(C)C(O)(CCc1ccc(Cl)cc1)Cn1cncn1 (stereo not drawn) [Tebuconazole 25EW, tebuconazole]
- Control value ([1]; 0.3 ppm, ten-point scale): 0.0
- Control value ([1]; 1 ppm, ten-point scale): 0.0
- Control value ([6]; 1 ppm): 0.0
- Control value (%) ([2]; 1 ppm, Compound [1-7] series): 0.0%
- Control value ([4]; 0.3 ppm): 0.0
